Assay results published in the NIST ThermoML archive (doi:10.1021/je3011634).
± gives the expanded uncertainty stated by the source.

Settings: 101.33 kPa, Liquid; for viscosity: Capillary tube (Ostwald / Ubbelohde) method; for mass density: Vibrating tube method

Row | viscosity (293.15 K) | mass density (293.15 K) | viscosity (303.15 K) | mass density (303.15 K) | viscosity (313.15 K) | mass density (313.15 K) | viscosity (323.15 K) | mass density (323.15 K) | mass density (333.15 K) | viscosity (333.15 K) | SMILES
1 | 2.204 ± 0.1 mPa·s | 803.57 ± 0.15 kg/m3 | 1.513 ± 0.1 mPa·s | 795.53 ± 0.15 kg/m3 | 1.018 ± 0.1 mPa·s | 787.35 ± 0.15 kg/m3 | 0.79 ± 0.1 mPa·s | 778.98 ± 0.15 kg/m3 | 770.38 ± 0.16 kg/m3 | – | CCCO [propan-1-ol]
2 | 2.362 ± 0.1 mPa·s | 785.35 ± 0.17 kg/m3 | 1.762 ± 0.1 mPa·s | 776.86 ± 0.17 kg/m3 | 1.2 ± 0.1 mPa·s | 768.07 ± 0.17 kg/m3 | 0.938 ± 0.1 mPa·s | 758.89 ± 0.18 kg/m3 | 749.25 ± 0.18 kg/m3 | 0.604 ± 0.1 mPa·s | CC(C)O [propan-2-ol]
3 | 4.087 ± 0.1 mPa·s | 801.82 ± 0.24 kg/m3 | 2.877 ± 0.1 mPa·s | 794.06 ± 0.24 kg/m3 | 2.091 ± 0.1 mPa·s | 786.12 ± 0.24 kg/m3 | 1.576 ± 0.1 mPa·s | 777.94 ± 0.24 kg/m3 | 769.46 ± 0.24 kg/m3 | 1.125 ± 0.1 mPa·s | CC(C)CO [2-methyl-1-propanol]
4 | 40.46 ± 0.27 mPa·s | 987.65 ± 0.23 kg/m3 | 23.98 ± 0.18 mPa·s | 979.65 ± 0.23 kg/m3 | 15.31 ± 0.14 mPa·s | 971.61 ± 0.23 kg/m3 | 10.22 ± 0.12 mPa·s | 963.52 ± 0.23 kg/m3 | 955.38 ± 0.23 kg/m3 | 6.962 ± 0.11 mPa·s | NCCCO [3-amino-1-propanol]
